The values that follow come from patent US4670444A, “7-amino-1-cyclopropyl-4-oxo-1, 4-dihydro-quinoline-and naphthyridine-3-carboxylic acids and antibacterial agents containing these compounds” (Bayer Aktiengesellschaft, priority 1980, dated 1987).

Molecules are shown by their SMILES. Values after ≈ are worked out from the molar mass of the structure shown. Where two headings read alike, the source gives them in different places.

Common to all, as to assay type: cell-based
One assay concerns Pseudomonas aeruginasa. The assay is described as follows: Agar dilution test, DST medium. The following applies: 1-2 × 10^3 germs/plate. For orientation: In agar dilution, organisms are placed on agar that contains the substance at set levels.
Assay [1] has as its system Staphylococcus aureus 133. The assay is described as follows: Agar dilution test, DST medium. The settings on record: 1-2 × 10^3 germs/plate.
From the text: (§2) DST (dexhase sensitivity test) medium; 1-2 × 10^3 germs/plate
The subject of the next assay is Klebsiella 8085. The assay is described as follows: Agar dilution test, DST medium. The settings on record: 1-2 × 10^3 germs/plate.
The next assay concerns Proteus 1017. The assay is described as follows: Agar dilution test, DST medium. The settings on record: 1-2 × 10^3 germs/plate.
The next assay deals with E. coli A 261. The assay is described as follows: Agar dilution test, DST medium. The following applies: 1-2 × 10^3 germs/plate.
Another assay deals with E. coli Neum. The assay is described as follows: Agar dilution test, DST medium. The following applies: 1-2 × 10^3 germs/plate.
The subject of a further assay is Escherichia coli 103400. The assay is described as follows: Agar dilution test, Denley multipoint inoculation method. The source says: (§1) | ^x Denley multipoint inoculation method
Another assay concerns Klebsiella 63. The assay is described as above.
From the text: as §1

Another assay deals with Pseudomonas 7167. The description is as above. The settings on record: read-out: Minimum inhibitory concentrations in an agar dilution test.
From the text: as §1

For the next assay, the system named is Proteus 8228. The description is as above. The settings on record: read-out: Minimum inhibitory concentrations in an agar dilution test.
From the text: as §1

A further assay has as its system Escherichia coli 455/7. The assay is described as above.
From the text: as §1

In another assay the test system is Salmonella 683. The assay is described as above. The following applies: read-out: Minimum inhibitory concentrations in an agar dilution test.
From the text: as §1

The subject of another assay is Escherichia coli T 7. Described as above. The settings on record: T7, read-out: Minimum inhibitory concentrations in an agar dilution test.
From the text: as §1

[2] abbreviates: Escherichia coli 103400, Denley multipoint inoculation method, read-out: Minimum inhibitory concentrations in an agar dilution test.
Setting [3] is: Klebsiella 63, Denley multipoint inoculation method, read-out: Minimum inhibitory concentrations in an agar dilution test.
Setting [4] is: Proteus 8228, Denley multipoint inoculation method.
The mark [5] stands for this setting: Escherichia coli 455/7, Denley multipoint inoculation method, read-out: Minimum inhibitory concentrations in an agar dilution test.

From the text for E. coli A 261: as §2
From the text for E. coli Neum.: as §2
From the text for Klebsiella 8085: as §2
From the text for Proteus 1017: as §2
From the text for Pseudomonas aeruginasa: as §2

`O=C(O)c1cn(C2CC2)c2cc(N3CCNCC3)ncc2c1=O`: the “antibacterial action in agar dilution test” value (from here on “antibacterial action”) with Pseudomonas aeruginasa is recorded as 4; in assay [1], 8; in the assay on Klebsiella 8085, 1; in the assay with Proteus 1017, 0.5; in the assay on E. coli A 261, 1; in the assay with E. coli Neum. it was 1.

Take `CCn1cc(C(=O)O)c(=O)c2cc(F)c(N3CCNCC3)cc21`: the “antibacterial action” value stood at 1 in the assay with Pseudomonas aeruginasa; 1 in assay [1]; 0.25 in the assay on Klebsiella 8085; 0.06 in the assay on Proteus 1017; 0.125 in the assay with E. coli A 261; 0.25 with E. coli Neum..

For `O=C(O)c1cn(C2CC2)c2cc(N3CCNCC3)c(F)cc2c1=O` [1-cyclopropyl-6-fluoro-1,4-dihydro-4-oxo-7-piperazino-quinoline-3-carboxylic acid], the “antibacterial action” value was 0.5 in the assay with Pseudomonas aeruginasa; 0.25-0.5 in assay [1]; 0.06 in the assay with Klebsiella 8085; 0.03 in the assay with Proteus 1017; 0.06 in the assay with E. coli A 261; 0.06 in the assay on E. coli Neum..

`CN1CCN(c2cc3c(cn2)c(=O)c(C(=O)O)cn3C2CC2)CC1` [Example 1, 7-(4-Methylpiperazino)-1-cyclopropyl-4-oxo-1,4-dihydro-1,6-naphthyridine-3-carboxylic acid]: the MIC in the assay with Escherichia coli 103400 (setting [2]) was found to be 0.25 µg/mL (≈ 0.761 µM); in the assay on Klebsiella 63 (setting [3]), 1 µg/mL (≈ 3.05 µM); in the assay with Pseudomonas 7167 it was 8 µg/mL (≈ 24.4 µM); in the assay on Proteus 8228 (setting [4]), 2 µg/mL (≈ 6.09 µM); with Escherichia coli 455/7 (setting [5]), 128 µg/mL (≈ 390 µM); in the assay with Salmonella 683, 0.5 µg/mL (≈ 1.52 µM). For the same molecule, the MIC in the assay with Escherichia coli T 7 turned out to be 0.25 µg/mL (≈ 0.761 µM).

Consider `CCn1cc(C(=O)O)c(=O)c2ccc(C)nc21` [Nalidixic acid, 1-ethyl-7-methyl-1,8-naphthyrid-4-one-3-carboxylic acid], for which the MIC in the assay with Escherichia coli 103400 (Escherichia coli, 103400, read-out: Minimum inhibitory concentrations in an agar dilution test) came to 2 µg/mL (≈ 8.61 µM); with Klebsiella 63 (Klebsiella, 63, read-out: Minimum inhibitory concentrations in an agar dilution test) it was 4 µg/mL (≈ 17.2 µM); with Pseudomonas 7167 it was 64 µg/mL (≈ 276 µM); in the assay on Proteus 8228, 8 µg/mL (≈ 34.4 µM); in the assay with Escherichia coli 455/7 (Escherichia coli, 455/7, read-out: Minimum inhibitory concentrations in an agar dilution test), 256 µg/mL (≈ 1100 µM); with Salmonella 683, 4 µg/mL (≈ 17.2 µM). The MIC with Escherichia coli T 7 turned out to be 1 µg/mL (≈ 4.31 µM).

Consider `CCn1cc(C(=O)O)c(=O)c2cnc(N3CCNCC3)nc21` [Pipemidic acid, 2-piperazino-8-ethyl-5-oxo-5,8-dihydropyrido 2,3-d pyrimidine-6-carboxylicacid], for which the MIC in the assay with Escherichia coli 103400 (setting [2]) amounted to 1 µg/mL (≈ 3.3 µM); in the assay on Klebsiella 63 (setting [3]), 2 µg/mL (≈ 6.59 µM); in the assay on Pseudomonas 7167 it was 16 µg/mL (≈ 52.7 µM); in the assay with Proteus 8228 (setting [4]), 4 µg/mL (≈ 13.2 µM); in the assay on Escherichia coli 455/7 (setting [5]), 128 µg/mL (≈ 422 µM); in the assay with Salmonella 683 it was 2 µg/mL (≈ 6.59 µM). In addition, in the assay on Escherichia coli T 7, the MIC amounted to 2 µg/mL (≈ 6.59 µM).
